According to the NIST ThermoML archive (doi:10.1016/j.fluid.2017.07.002):
Where “and” joins values, the source holds several entries; their conditions need not be identical. Identical values can stand only once. ± gives the expanded uncertainty stated by the source. Values belong to the molecule of their own block, whether it stands above or below them.

Details: Liquid, Closed cell (Static) method

SMILES: C=C(F)C(F)(F)F [2,3,3,3-tetrafluoro-1-propene]
vapor or sublimation pressure (193.26 K): 5.46 ± 0.38 kPa
vapor or sublimation pressure (193.3 K): 5.69 ± 0.38 kPa
vapor or sublimation pressure (223 K): 37.74 ± 0.42 kPa
vapor or sublimation pressure (223.08 K): 37.41 ± 1.1 kPa
vapor or sublimation pressure (223.11 K): 37.48 ± 1.1 kPa
vapor or sublimation pressure (233.02 K): 61.64 ± 0.61 kPa
vapor or sublimation pressure (233.04 K): 62.24 ± 1.3 kPa
vapor or sublimation pressure (272.69 K): 310.8 ± 1.5 kPa
vapor or sublimation pressure (272.75 K): 310.85 ± 1.5 kPa and 310.76 ± 1.5 kPa
vapor or sublimation pressure (272.78 K): 311.18 ± 1.5 kPa
vapor or sublimation pressure (272.8 K): 311.8 ± 1.5 kPa
vapor or sublimation pressure (272.81 K): 311.46 ± 1.5 kPa

SMILES: CC [ethane]
vapor or sublimation pressure (173.63 K): 53.57 ± 0.85 kPa
vapor or sublimation pressure (177.24 K): 66.42 ± 1.1 kPa
vapor or sublimation pressure (183.28 K): 94.31 ± 1.1 kPa
vapor or sublimation pressure (228.82 K): 673.93 ± 3.5 kPa

SMILES: FC(F)(F)F [tetrafluoromethane]
vapor or sublimation pressure (153.23 K): 171.92 ± 5.7 kPa
vapor or sublimation pressure (193.43 K): 1205.3 ± 6.8 kPa

Continued, values first:

vapor or sublimation pressure (223.21 K): 53.1 ± 1.9 kPa
vapor or sublimation pressure (272.76 K): 408.18 ± 2 kPa
SMILES: FC(F)(F)C(F)(F)C(F)(F)F [octafluoropropane]

vapor or sublimation pressure (173.86 K): 34.35 ± 0.58 kPa
vapor or sublimation pressure (177.11 K): 41.46 ± 0.77 kPa
vapor or sublimation pressure (183.19 K): 62.33 ± 0.9 kPa
vapor or sublimation pressure (183.2 K): 62.29 ± 0.92 kPa
vapor or sublimation pressure (193.19 K): 113.55 ± 3.3 kPa
vapor or sublimation pressure (228.83 K): 600.35 ± 3.2 kPa
vapor or sublimation pressure (233.16 K): 707.03 ± 6.9 kPa
vapor or sublimation pressure (273.25 K): 2502.8 ± 13 kPa
SMILES: FC(F)F [trifluoromethane]
